Data set [1] deals with T1, A1 receptor (Rattus norvegicus, UniProt P25099).
T1 construct: host or cells: rodent (rat) in vivo models
T1 sequence (P25099 1-326): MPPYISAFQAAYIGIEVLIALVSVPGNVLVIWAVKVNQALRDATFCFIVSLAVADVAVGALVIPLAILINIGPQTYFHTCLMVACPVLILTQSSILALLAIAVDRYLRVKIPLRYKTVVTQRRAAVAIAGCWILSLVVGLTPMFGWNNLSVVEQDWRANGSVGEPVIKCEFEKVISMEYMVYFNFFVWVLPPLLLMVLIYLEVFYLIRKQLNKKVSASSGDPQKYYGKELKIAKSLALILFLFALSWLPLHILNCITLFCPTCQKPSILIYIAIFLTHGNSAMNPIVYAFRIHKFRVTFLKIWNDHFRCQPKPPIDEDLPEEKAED
The note with it: rodent models, blockade of A1 receptor; cited from earlier work.

The test system of data set [2] is mouse model. The data set can be described thus: MSX-3 in cisplatin-induced kidney injury mouse model. The class given is in vivo. The settings on record: vs. cisplatin. An excerpt:
FIG. 9. […] (A) BUN quantification. (B) Gene expression of the inflammatory marker Tnfa.

For data set [3] the following is noted: both in vitro and in vivo; cited from earlier work.
In data set [4] the test system is kidney mouse sections. Briefly: Red Oil staining of kidney mouse sections. The class given is in vivo. The note with it: cisplatin alone. On the procedure:
FIG. 6. KW6002 alleviates the cisplatin-induced nephrotoxicity associated with apoptosis, lipid metabolism, and oxidative stress. (A) Tail moment assessed by comet assay; 50 cells/condition were analyzed. (B and C) KW6002 attenuates cisplatin-induced renal lipid accumulation, assessed by Red Oil staining. […] Results are the mean±SEM (n=6-9 mice/group). (F-H) KW6002 attenuated cisplatin-induced oxidative stress in RPTEC/hTERT1 cells. (F and G) Gene expression of Nrf2 (F) and HO1 (G). […] Results are the mean±SEM (n=3 independent experiments).
10 μm frozen kidney mouse sections were fixed with ethanol (60%) then incubated for 15 min with Oil Red O Solution (Fisher Biotech) dissolved in isopropanol. After several washes with ddH2O, samples were incubated 3 min with hematoxylin. Lipid droplets are stained in red whereas nuclei appeared blue. […] RPTEC/hTERT cells were fixed with ethanol (60%) then incubated for 15 min with Oil Red O Solution. The cells were washed three times with ddH2O and incubated 3 min with hematoxylin. Coverslips were rinsed with H2O before mounting on microscope slides using glycerol gelatin aqueous slide mounting medium (Sigma). Quantifications were performed blindly using ImageJ software. […] The resulting red color images were quantified using a custom threshold (0.173 for RPTEC/hTERT cells and 0.140 for kidney stainings).

Data set [5] deals with kidney transcriptome. The data set can be described thus: RNA-Seq of kidney, sub-chronic protocol. In kind it is in vivo, mice. The settings on record: adjusted p-value<0.01, log 2 fold change±1. On the procedure:
RNA-seq libraries (n=5-6/group) were generated from 500 ng of total RNA using Illumina® TruSeq® Stranded mRNA Library Prep Kit v2. Briefly, following purification with poly-T oligo attached magnetic beads, the mRNA was fragmented using divalent cations at 94° C. for 2 min. The cleaved RNA fragments were copied into first-strand cDNA using reverse transcriptase and random primers. Strand specificity was achieved by replacing dTTP with dUTP during the second-strand cDNA synthesis by DNA polymerase I and RNase H. Following the addition of a single “A” base and the subsequent ligation of the adapter on double-stranded cDNA fragments, the products were purified and enriched with PCR [30 s at 98° C.; (10 s at 98° C., 30 s at 60° C., 30 s at 72° C.)×12 cycles; 5 min at 72° C.] to create the cDNA library. Surplus PCR primers were further removed by purification using AMPure XP beads (Beckman Coulter), and the final cDNA libraries were checked for quality and quantified using capillary electrophoresis. Sequencing was performed on the Illumina® Genome Hiseq4000 as single-end 50 base reads following Illumina's instructions. Reads were mapped onto the mm 10 assembly of Mus musculus genome using STAR v2.5.3a (72). Only uniquely aligned reads were kept for further analyses. Quantification of gene expression was performed using HTSeq-count v0.6.1p1 (73) and gene annotations from Ensembl releases 90 and 102 and “union” mode. Read counts were normalized across libraries with the method proposed by Ander et al. (74). Comparisons of interest were performed using the test for differential expression proposed by Love et al. (75) and implemented in the DESeq2 Bioconductor library (v1.16.1). Resulting p-values were adjusted for multiple testing using the Benjamini and Hochberg method (76). RNA-sequencing was performed by Plateforme GenomEast, Institut de Génétique et de Biologie Moléculaire et Cellulaire, UMR 7104 CNRS-UdS/INSERM U964 (Illkirch, France). Sequencing data that support the findings of this study have been deposited in GEO with the primary accession code GSE179247. […]

For data set [6], the system named is C57BL6/J mice. The data set can be described thus: Sub-chronic cisplatin-induced kidney injury model. The settings on record: cisplatin 3 mg/kg for six days. The class given is in vivo. On the procedure: FIG. 1. Schematic representation of the different animal procedures. (A) Acute cisplatin-induced kidney injury. […] (B) Sub-chronic cisplatin-induced kidney injury. […] (C) KW-6002 administration schedule in the acute model. […] (D) KW-6002 administration schedule in the sub-chronic model.
Animal experiments were adapted from 63-64. Animal procedures were performed in 8 to 10 weeks old male C57B16/J mice (Janvier Labs). Mice were fed a laboratory standard diet with water and food ad libitum and were kept under constant environmental conditions with a 12-hour light-dark cycle. Istradefylline (KW-6002; Tocris) was dissolved in a carrier solution consisting in 15% DMSO, 15% cremophor (Sigma), 70% saline solution (vehicle). Cisplatin (Accord Healthcare) was dissolved in saline solution. […] Three days after this single injection, animals were sacrificed by cervical dislocation (FIG. 1A).
Prior sacrifice by cervical dislocation, retro-orbital blood samples were collected in heparinized tubes and centrifuged for 10 min at 2000 rpm at room temperature. Renal function was assessed by Blood urea nitrogen (BUN) measurement using a AU480 Chemistry Analyzer (Beckman Coulter). At the time of sacrifice, kidneys or LLC1 tumors were harvested and stored in either “RNA later” solution (Thermo Fisher), 4% neutral buffered formalin or snap-frozen in liquid nitrogen.
Formalin-fixed and paraffin-embedded sections (3 μm thick) were stained with Hematoxylin and Eosin (Sigma Aldrich) or Periodic Acid-Schiff (Sigma-Aldrich). Slices were scored by a nephropathologist in a blinded manner. A kidney injury score grading scale from 0 to 5 was used to assess the severity of the injury as follow: 0=no lesions, 1=minimal injury characterized by occurrence of necrosis and debris; 2=mild injury with single cell necrosis, pyknotic cells, and apoptosis; 3=moderate injury characterized by tubular distension, vacuolation, and some cellular debris, 4=severe injury with occasional hyaline casts observed, patchy epithelial necrosis in all segments, loss of epithelial lining; and 5=very severe injury characterized by extensive tubular epithelial necrosis in all segments, loss of epithelial layer from many tubules widespread intraluminal cellular debris, and frequent hyaline casts particularly prominent in the medullary region (67).
Total RNA from kidney samples was extracted with phenol/chloroform and subsequently precipitated in isopropanol as described previously (71). Total RNA from cultured renal cells was extracted using RNeasy Mini kit (Qiagen) following manufacturer's recommendations.
Reverse transcription was performed on 1 μg of RNA using high-capacity cDNA reverse transcription kit (Thermo Fisher), according the manufacturer's recommendation. Real time PCR was performed on a StepOne device using Taqman Gene Expression Master Mix (Thermo Fisher), following manufacturer's recommendations. […]

With `CCCn1c(=O)c2[nH]c(C3CCCC3)nc2n(CCC)c1=O` [8-cyclopentyl-1,3-dipropylxanthine], the “protection against cisplatin nephrotoxicity” value (“protection” for short) in data set [1] is recorded as “protective against cisplatin nephrotoxicity”.
Turning to `CCCn1c(=O)c2[nH]c(C34CC5CC(CC3C5)C4)nc2n(CCC)c1=O` [KW-3902], the “protection” value in data set [1] is reported as “protective against cisplatin nephrotoxicity”.
In the case of `C#CCn1c(=O)c2c(nc(/C=C/c3cccc(OC)c3)n2C)n(CCCOP(=O)([O-])[O-])c1=O.[Na+].[Na+]` [MSX-3], the BUN entry in data set [2] (FIG. 9A) is reported as “significant reduction of BUN”. Also, in data set [2] (FIG. 9B), the “mRNA levels of Tnfα” value is recorded as “lower mRNA levels of Tnfα”.
For the compound `Cn1c(=O)c2c(ncn2C)n(C)c1=O` [caffeine], the “anti-tumoral effect of cisplatin” value in data set [3] is reported as “potentiate the anti-tumoral effect of cisplatin”.
As for `N.N.[Cl][Pt][Cl]` [cisplatin, cis-diamminedichloroplatinum (II)], the “lipid droplets in kidney” value in data set [4] was “induced an accumulation of lipid droplets”. For the same compound, in data set [5], the “genes downregulated in kidney” value came out at 2299 genes, the “genes upregulated in kidney” value is 2350 genes and the “genes whose expression is impacted in kidney” value is listed as 4649 genes. For the same compound, in data set [6], the histological lesions result was “severe histological lesions”, the “mRNA expression of Il6” value is recorded as “increased mRNA expression”, the “mRNA expression of Tnf” value is on record as “increased mRNA expression” and the “mRNA levels of KIM-1” value is recorded as “significantly increased”. Besides, the “mRNA levels of NGAL” value in data set [6] was “significantly increased”. In addition, in data set [6] (data not shown), the “blood urea nitrogen (BUN) levels” value is given as “increased blood urea nitrogen (BUN) levels”.
`CCCn1c(=O)c2nc(C34CCC(CCC(=O)O)(CC3)CC4)[nH]c2n(CCC)c1=O` [tonapofylline]: the “protection” value in data set [1] is listed as “protective against cisplatin nephrotoxicity”.

The values above are taken from patent US20250161312A1, “A METHOD FOR THE TREATMENT OF CHEMOTHERAPEUTIC DRUG-INDUCED NEPHROTOXICITY” (INSTITUT NATIONAL DE LA SANTÉ ET DE LA RECHERCHE MÉDICALE, priority 2022, published 2025).
